In US5677297A, “Benzazepine-, benzoxazepine- and benzothiazepine-n-acetic acid derivatives, process for their preparation and pharmaceutical compositions containing them” (Solvay Pharmaceuticals GmbH, priority 1995, dated 1997):

Biological target: T1, endothelin-converting enzyme (ECE) (Homo sapiens, UniProt P42892)
T1 construct: expressed in transfected cells; host or cells: CHO cells (Chinese hamster ovary), membrane fraction
T1 sequence (P42892 1-770): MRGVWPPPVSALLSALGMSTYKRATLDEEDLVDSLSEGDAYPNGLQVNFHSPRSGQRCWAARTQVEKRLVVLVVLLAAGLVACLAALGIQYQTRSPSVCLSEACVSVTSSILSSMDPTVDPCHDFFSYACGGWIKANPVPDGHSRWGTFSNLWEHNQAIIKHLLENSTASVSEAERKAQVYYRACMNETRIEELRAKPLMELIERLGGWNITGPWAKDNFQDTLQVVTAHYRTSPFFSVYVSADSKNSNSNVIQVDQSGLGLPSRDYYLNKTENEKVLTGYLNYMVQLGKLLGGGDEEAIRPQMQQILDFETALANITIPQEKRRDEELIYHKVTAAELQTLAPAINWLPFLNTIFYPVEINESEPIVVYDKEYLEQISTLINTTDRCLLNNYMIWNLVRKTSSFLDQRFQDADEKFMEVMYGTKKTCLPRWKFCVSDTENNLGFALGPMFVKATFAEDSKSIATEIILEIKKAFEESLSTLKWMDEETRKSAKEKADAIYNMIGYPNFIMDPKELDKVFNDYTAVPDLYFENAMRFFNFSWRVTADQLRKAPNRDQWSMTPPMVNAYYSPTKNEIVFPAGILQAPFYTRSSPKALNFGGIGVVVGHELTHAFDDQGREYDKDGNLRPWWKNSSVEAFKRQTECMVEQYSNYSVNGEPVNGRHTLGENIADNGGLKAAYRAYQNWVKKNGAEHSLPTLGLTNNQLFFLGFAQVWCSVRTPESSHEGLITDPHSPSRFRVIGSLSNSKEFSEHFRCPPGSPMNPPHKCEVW
Assay: In vitro investigation of the ECE-inhibitory effect (recombinant human ECE in CHO cell membrane fraction)
Assay type: biochemical
Settings: 24 μM synthetic peptide substrate, pH 7.0, 37° C., 60 min
Protocol: 3. In vitro investigations of the ECE-inhibitory effect of the substances.
The IC50 of the substances was determined as a measure of their inhibitory activity. The IC50 of a test substance with enzyme-inhibiting activity is the concentration of the test substance at which 50% of the enzymatic activity of ECE is inhibited.
Preparation of the ECE-containing endothelial cell membrane fraction.
Egg cells from the Chinese hamster (Chinese hamster ovary cells, hereinafter CHO cells) in which there was recombinant expression of human ECE [see Schmidt et al., Federation of European Biochemical Societies Letters 356 238-43 (1994)] were lysed, and the cell membranes were removed by centrifugation at 10,000×g for 10 min. The cell membranes were washed by resuspension and repeated centrifugation three times. The ECE-containing cell membrane fraction was resuspended in 100 mM tris/HCl buffer (tris(hydroxymethyl)aminomethane/HCl, pH 7.0, containing 250 mM NaCl) and stored frozen at -70° C. before the enzyme test.
To carry out the test, respective 100 μl samples of various incubation solutions each containing 5 μg protein from an ECE-containing preparation of endothelial cell membranes and different amounts of test substance and 24 μM substrate (synthetic peptide: H2 N-Asp-Ile-Ala-Trp-Phe-Asn-Thr-Pro-Glu-His-Val-Val-Pro-Tyr-Gly-Leu-Gly-COOH) (SEQ ID NO:1) and 100 mM tris buffer (tris(hydroxymethyl)aminomethane/HCl, pH 7.0, containing 250 mM sodium chloride) were prepared. […]
The incubation solutions were preincubated at 37° C. for 15 min before the substrate was added. […] The hydrolysis products H2N-Asp-Ile-Ala-Trp-COOH (SEQ ID NO:2) and H2 N-Phe-Asn-Thr-Pro-Glu-His-Val-Val-Pro-Tyr-Gly-Leu-Gly-COOH (SEQ ID NO:3) formed from the substrate by the enzymatic reaction were determined with the aid of high-pressure liquid chromatography (HPLC). […] The IC50 was calculated for each test substance in a known manner from the concentrations of hydrolysis products measured in the various samples.

O=C(O)CN1C(=O)[C@@H](NC(=O)C2(C[C@@H](CCc3ccccc3)C(=O)O)CCCC2)CCc2ccccc21 [Example 8, (3S,2'R)-3-[1-(2'-Carboxy-4'-phenylbutyl)cyclopentane-1-carbonylamino]-2,3,4,5-tetrahydro-2-oxo-1H-1-benzazepine-1-acetic acid]
IC50: 1290 nM
